Source: publication PMC8972196, “A Set of Experimentally Validated Decoys for the Human CC Chemokine Receptor 7 (CCR7) Obtained by Virtual Screening” (Frontiers in Pharmacology, 2022)
pIC50: −log10 of the molar value. Read-outs that look alike come from different tables or passages of the source.

Biological target: T1, human CCR7 (Homo sapiens, UniProt P32248)
T1 construct: expressed in transfected cells
T1 sequence (P32248 25-378): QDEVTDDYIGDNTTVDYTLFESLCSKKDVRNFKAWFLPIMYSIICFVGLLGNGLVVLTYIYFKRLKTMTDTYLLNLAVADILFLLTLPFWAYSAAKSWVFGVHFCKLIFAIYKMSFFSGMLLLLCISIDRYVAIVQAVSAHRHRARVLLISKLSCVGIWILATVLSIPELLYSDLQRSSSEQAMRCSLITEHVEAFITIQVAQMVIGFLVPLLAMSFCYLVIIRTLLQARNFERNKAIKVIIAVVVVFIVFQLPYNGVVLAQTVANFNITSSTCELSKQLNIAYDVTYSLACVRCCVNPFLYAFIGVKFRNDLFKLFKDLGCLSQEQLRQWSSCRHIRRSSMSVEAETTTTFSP
Experiment: CCL19-induced calcium mobilization assay, U87.CD4 cells expressing CCR7
Assay type: cell-based
Settings: for IC50: read-out: IC50 [μM] block CCL19 induced calcium signaling
Procedure, shortened: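 Calcium mobilization was recorded in U87.CD4 cells stably carrying human CXCR2 (stimulated with CXCL8), CCR7 (stimulated with CCL19) or CCR5. Cells were plated at 20,000 cells/well, cultured overnight at 37°C in 5% CO2, and incubated 45 min at room temperature in the dark before reading.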

[1] = CCL19 induced calcium signaling
[2] = classification as decoy or active on CCR7
[3] = CCL19-induced calcium signaling
[4] = classification of tested compounds as decoy or active

| Compound | IC50 [1] | Decoy – 0 Active – 1 [2] | IC50 [3] | Decoy – 0 Active – 1 [4] | pIC50 |
| --- | --- | --- | --- | --- | --- |
| Cc1ccc(NC2=NC(=O)SC2=Cc2ccco2)cc1 [C078, Cc1ccc(NC2=[NH+]C(=O)SC2=Cc2ccco2)cc1] |  |  | > 10 µM | 0 |  |
| CC(C)C(CO)NC(=O)NC(c1cccc(F)c1F)C(F)(F)F (stereo not shown) [C191, CC(C)C(CO)NC(=O)NC(c1cccc(F)c1F)C(F)(F)F] | > 50 µM | 0 |  |  |  |
| Cc1ccc(N=C(N)C(N)=Nc2ccc(C)cc2)cc1 [C065, Cc1ccc([NH+]=C(N)C(N)=[NH+]c2ccc(C)cc2)cc1] |  |  | > 10 µM | 0 |  |
| Cc1cnn(C[C@@H]2CCCN2C(=O)[C@H](C(C)C)n2cncn2)c1 [C143, Cc1cnn(C[C@@H]2CCCN2C(=O)[C@H](C(C)C)n2cncn2)c1] |  |  | > 50 µM | 0 |  |
| COC(=O)c1ccccc1Nc1c(N2CCNC(=O)C2)c(=O)c1=O [C005, COC(=O)c1ccccc1Nc1c(N2CCNC(=O)C2)c(=O)c1=O] |  |  | > 50 µM | 0 |  |
| O=C(N[C@@H](c1nccs1)C1CC1)c1cc(N2CCOCC2)ccn1 [C147, O=C(N[C@@H](c1nccs1)C1CC1)c1cc(N2CCOCC2)cc[nH+]1] |  |  | > 50 µM | 0 |  |
| CC1CN(C(=O)c2cc3c(OC(F)(F)F)cccc3[nH]2)CC(=O)N1 (stereo not shown) [C176, CC1CN(C(=O)c2cc3c(OC(F)(F)F)cccc3[nH]2)CC(=O)N1] | > 50 µM | 0 |  |  |  |
| COc1ccc(S(=O)(=O)N2CC(C(=O)Nc3ccccc3)Oc3ccccc32)cc1 (stereo not shown) [C265, COc1ccc(cc1)S(=O)(=O)N2CC(Oc3c2cccc3)C(=O)Nc4ccccc4] | > 50 µM | 0 |  |  |  |
| C[C@H](c1ccccc1)[C@@H](C)NC(=O)N[C@H]1CCN(C)C1=O [C114, C[C@@H](NC(=O)N[C@H]1CCN(C)C1=O)[C@H](C)c1ccccc1] |  |  | > 50 µM | 0 |  |
| Cc1cnc([C@@H](C)CNC(=O)Nc2ccc3c(c2)S(=O)(=O)CC3)s1 [C113, Cc1cnc([C@@H](C)CNC(=O)Nc2ccc3c(c2)S(=O)(=O)CC3)s1] |  |  | > 50 µM | 0 |  |
| CC1CCCCN1C(=O)CNc1ccc(Cl)c(C(=O)N(C)C)c1 (stereo not shown) [C073, CC1CCCCN1C(=O)CNc1ccc(Cl)c(C(=O)N(C)C)c1] |  |  | > 10 µM | 0 |  |
| CNC(=O)c1ccc(C=CC(=O)N(C2CC2)C(C)c2ccco2)cc1 (stereo not shown) [C055, CNC(=O)c1ccc(C=CC(=O)N(C2CC2)C(C)c2ccco2)cc1] |  |  | > 10 µM | 0 |  |
| Cc1ccc(CN(C(=O)CNc2ccc(C(N)=O)c(C)c2)C2CC2)o1 [C053, Cc1ccc(CN(C(=O)CNc2ccc(C(N)=O)c(C)c2)C2CC2)o1] |  |  | > 10 µM | 0 |  |
| COc1ccc(S(=O)(=O)N(CC(=O)NCc2ccccn2)Cc2ccccc2)cc1 [C259, COc1ccc(cc1)S(=O)(=O)N(Cc2ccccc2)CC(=O)NCc3ccccn3] | > 50 µM | 0 |  |  |  |
| CCOC(=O)[C@H](NCC(=O)Nc1cccc(C(=O)N(C)C)c1)C(C)C [C125, CCOC(=O)[C@H]([NH2+]CC(=O)Nc1cccc(C(=O)N(C)C)c1)C(C)C] |  |  | > 50 µM | 0 |  |
| Cc1ccc(S(=O)(=O)N(CC(O)CN2CCCCC2)c2ccccc2)cc1 (stereo not shown) [C244, Cc1ccc(cc1)S(=O)(=O)N(CC(C[NH+]2CCCCC2)O)c3ccccc3] | > 50 µM | 0 |  |  |  |
| CCn1nccc1[C@H]1NC(=O)CC[C@H]1NC(=O)c1cc(C)n(C)n1 [C152, CCn1nccc1[C@H]1NC(=O)CC[C@H]1NC(=O)c1cc(C)n(C)n1] |  |  | > 50 µM | 0 |  |
| O=C(CNc1c(NCc2ccc3c(c2)OCO3)c(=O)c1=O)N1CCCC1 [C010, O=C(CNc1c(NCc2ccc3c(c2)OCO3)c(=O)c1=O)N1CCCC1] |  |  | > 50 µM | 0 |  |
| CC1(C)[C@H]2CC[C@@]1(CNc1c(NCc3cc(C(F)(F)F)cc(C(F)(F)F)c3)c(=O)c1=O)[C@H](N1CCCC1)C2 [C019, O=C1C(NC[C@]23CC[C@H](C3(C)C)C[C@H]2N4CCCC4)=C(NCC5=CC(C(F)(F)F)=CC(C(F)(F)F)=C5)C1=O] |  |  | > 50 µM | 0 |  |
| COc1ccc(N(CC(O)CNCCC(C)C)S(=O)(=O)c2ccc(C)cc2)cc1 (stereo not shown) [C248, Cc1ccc(cc1)S(=O)(=O)N(CC(C[NH2+]CCC(C)C)O)c2ccc(cc2)OC] | > 50 µM | 0 |  |  |  |
| O=C1CC(C(=O)NCc2csc3c2CCCC3)C2(CCCC2)O1 (stereo not shown) [C229, O=C1CC(C(=O)NCc2csc3c2CCCC3)C2(CCCC2)O1] | > 50 µM | 0 |  |  |  |
| Cc1ccc(S(=O)(=O)N2c3ccccc3CC2CO)cc1[N+](=O)[O-] (stereo not shown) [C266, Cc1ccc(cc1[N+](=O)[O-])S(=O)(=O)N2c3ccccc3CC2CO] | > 50 µM | 0 |  |  |  |
| Cc1ccc(S(=O)(=O)N(CCC(N)=O)Cc2ccccc2)cc1 [C258, Cc1ccc(cc1)S(=O)(=O)N(CCC(=O)N)Cc2ccccc2] | > 50 µM | 0 |  |  |  |
| CN(C)[C@@H]1CCCC[C@H]1Nc1c(NCc2cc(C(F)(F)F)cc(C(F)(F)F)c2)c(=O)c1=O [C021, CN(C)[C@@H]1CCCC[C@H]1NC(C2=O)=C(NCC3=CC(C(F)(F)F)=CC(C(F)(F)F)=C3)C2=O] |  |  | > 50 µM | 0 |  |
| Cc1ccc(S(=O)(=O)NC(C)C(c2ccccc2)N2CCOCC2)cc1 (stereo not shown) [C264, Cc1ccc(cc1)S(=O)(=O)NC(C)C(c2ccccc2)[NH+]3CCOCC3] |  | 0 |  |  | < 4.30 |
| CC(O)CNc1c(N2CCN(Cc3ccccc3Cl)CC2)c(=O)c1=O (stereo not shown) [C007, CC(O)CNc1c(N2CC[NH+](Cc3ccccc3Cl)CC2)c(=O)c1=O] |  |  |  | 0 | < 4.30 |

Further lines, with some results ahead:

| IC50 [1] | Decoy – 0 Active – 1 [2] | IC50 [3] | Decoy – 0 Active – 1 [4] | Compound | pIC50 |
| --- | --- | --- | --- | --- | --- |
| > 50 µM | 0 |  |  | COc1ccccc1NC(=O)CN(c1ccccc1)S(=O)(=O)c1ccc(OC)c(OC)c1 [C235, COc1ccccc1NC(=O)CN(c2ccccc2)S(=O)(=O)c3ccc(c(c3)OC)OC] |  |
|  |  | > 50 µM | 0 | Cc1cccc([C@H](NC(=O)c2cc(-c3ccccc3F)n[nH]2)C2CC2)n1 [C136, Cc1cccc([C@H](NC(=O)c2cc(-c3ccccc3F)n[nH]2)C2CC2)n1] |  |
|  |  | > 50 µM | 0 | C[C@@H](NC(=O)c1nnc(-c2ccc(S(=O)(=O)N(C)C)cc2)o1)c1ccccn1 [C092, C[C@@H](NC(=O)c1nnc(-c2ccc(S(=O)(=O)N(C)C)cc2)o1)c1ccccn1] |  |
| > 50 µM | 0 |  |  | O=C(NCC(O)(c1ccccc1)C(F)(F)F)c1cc(=O)c2ccccc2o1 (stereo not shown) [C208, O=C(NCC(O)(c1ccccc1)C(F)(F)F)c1cc(=O)c2ccccc2o1] |  |
|  |  | > 50 µM | 0 | O=S1(=O)C[C@H](Nc2ccc(Cl)cc2)[C@H](NCc2ccccc2)C1 [C122, O=S1(=O)C[C@@H](NCc2ccccc2)[C@@H](Nc2ccc(Cl)cc2)C1] |  |
| > 50 µM | 0 |  |  | O=S(=O)(NCC(c1ccco1)N1CCc2ccccc21)c1ccc2c(c1)OCCO2 (stereo not shown) [C238, c1ccc2c(c1)CCN2C(CNS(=O)(=O)c3ccc4c(c3)OCCO4)c5ccco5] |  |
| > 50 µM | 0 |  |  | COc1ccc(C(=O)C2CCCN(Cc3cc4ccccc4[nH]3)C2)c(OC)c1 (stereo not shown) [C273, COc1ccc(C(=O)C2CCCN(Cc3cc4ccccc4[nH]3)C2)c(OC)c1] |  |
| > 50 µM | 0 |  |  | COc1ccc(S(=O)(=O)NC(c2ccc(F)cc2)c2nccn2C)cc1 (stereo not shown) [C267, Cn1ccnc1C(c2ccc(cc2)F)NS(=O)(=O)c3ccc(cc3)OC] |  |
| > 50 µM | 0 |  |  | O=C(NCc1cccnc1-n1ccnc1)c1cc2ccccc2c(=O)[nH]1 [C215, O=C(NCc1cccnc1-n1ccnc1)c1cc2ccccc2c(=O)[nH]1] |  |
|  |  | > 30 µM | 0 | FC(F)(F)c1cccc(Cn2cnc(NC(=S)NCCc3ccccc3)n2)c1 [C027, FC(F)(F)c1cccc(Cn2cnc(NC(=S)NCCc3ccccc3)n2)c1] |  |
|  |  | > 10 µM | 0 | CN(C)C(=O)c1cccc(NC(=O)NCCc2ccccn2)c1 [C076, CN(C)C(=O)c1cccc(NC(=O)NCCc2ccccn2)c1] |  |
| > 50 µM | 0 |  |  | CC1CN(S(=O)(=O)c2ccc(CCC(=O)O)cc2)c2ccccc21 (stereo not shown) [C268, CC1CN(c2c1cccc2)S(=O)(=O)c3ccc(cc3)CCC(=O)[O-]] |  |
| > 50 µM | 0 |  |  | Cc1nccn1-c1ccccc1CNC(=O)CC1NC(=O)c2ccccc21 (stereo not shown) [C223, Cc1nccn1-c1ccccc1CNC(=O)CC1NC(=O)c2ccccc21] |  |
| > 50 µM | 0 |  |  | O=C1CC(NC(=O)N2CCCC2c2ccccc2)CN1c1ccccc1 (stereo not shown) [C198, O=C1CC(NC(=O)N2CCCC2c2ccccc2)CN1c1ccccc1] |  |
| > 50 µM | 0 |  |  | NC(=O)CN1CC(CCN2CCCC2=O)c2ccccc21 (stereo not shown) [C214, NC(=O)CN1CC(CCN2CCCC2=O)c2ccccc21] |  |
| > 50 µM | 0 |  |  | O=C(Nc1nc2c(s1)C(=O)CC(C(=O)NC1CCCc3ccccc31)C2)c1ccncc1 (stereo not shown) [C225, O=C(Nc1nc2c(s1)C(=O)CC(C(=O)NC1CCCc3ccccc31)C2)c1ccncc1] |  |
|  |  | > 50 µM | 0 | O=C(NCc1ccccn1)c1cn2c(n1)C(=O)N(CC1CC1)CC2 [C095, O=C(NCc1ccccn1)c1cn2c([nH+]1)C(=O)N(CC1CC1)CC2] |  |
|  |  | > 50 µM | 0 | Cc1c(NC(=O)CN(C)Cc2ccc(F)cc2)cccc1C(=O)N(C)C [C099, Cc1c(NC(=O)C[N@H+](C)Cc2ccc(F)cc2)cccc1C(=O)N(C)C] |  |
